Test results taken from patent US20260297060A1, “COMPOUNDS FOR THE DEGRADATION OF MUTANT BRAF” (C4 THERAPEUTICS, INC., priority 2023, published 2026).

How the values were obtained:
[1] = tested on: A375 human melanoma xenografts; experiment: Example 9 efficacy study Part I in A375 human melanoma xenografts (tumor volume, T/C, TGI); assay type: in vivo, BALB/c nude mice; conditions: 100 mg/kg, p.o., QD × 14 days
Protocol: For efficacy study Part I, agents were tested in the A375 human melanoma xenografts. Compound 218 and Compound 157 were administered to BALB/c nude mice bearing A375 xenografts from day 0 and dosed twice a day (BID) for 14 days. Compound 218 and Compound 157 were dosed at 10 mg/kg via p.o.. Dabrafenib was administered from day 1 daily (QD) for 14 days and dosed at 100 mg/kg via p.o..
The A375 tumor cells were maintained in vitro in DMEM medium supplemented with […] and 1% Penicillin-Streptomycin at 37° C. in an atmosphere of 5% CO2 in air. The tumor cells were routinely subcultured twice weekly. The cells growing in an exponential growth phase were harvested and counted for tumor inoculation.
Each mouse was inoculated subcutaneously at the right flank with A375 cells (5×10^6) in 0.2 mL of PBS supplemented with Matrigel (PBS: Matrigel=1:1) for tumor development. Animals were grouped for the treatment when the average tumor volume reached 243 mm^3 for efficacy study part I and 413 mm^3 for the PK and PD study part I on day 15, and 271 mm^3 for efficacy part II and 443 mm^3 for the PK and PD part II on day 18, and 463 mm^3 for the PK and PD study part III on day 21. The test articles administration and the animal numbers in each group are shown in the above experimental tables.
(§1) Prior to the onset of drug treatment, mice were measured for tumor size in two dimensions using a caliper, and the tumor volume (mm^3) was calculated using formula V=0.5 a×b^2 where a and b are the long and short diameters of the tumor in mm, respectively. Mice were randomized into different treatment groups based on the tumor volume.
(§2) The major endpoint was to see if the tumor growth could be delayed or mice could be cured. The tumor size was then used for calculations of T/C value. The T/C value (in percent) is an indication of antitumor effectiveness; T and C are the mean volumes of the treated and control groups, respectively on specified day.
TGI was calculated for each group using the formula: TGI (%)=[1−(Ti−T0)/(Ci−C0)]×100; Ti is the average tumor volume of a treatment group on a given day, To is the average tumor volume of the treatment group on the day of treatment start, Ci is the average tumor volume of the vehicle control group on the same day with Ti, and C0 is the average tumor volume of the vehicle group on the day of treatment start.

[2] = tested on: A375 human melanoma xenografts; experiment: Example 7 efficacy study in A375 human melanoma xenografts (tumor volume, T/C, TGI); assay type: in vivo, BALB/c nude mice; conditions: 100 mg/kg, p.o., QD × 14 days
Protocol: For efficacy study, agents were tested in the A375 human melanoma xenografts. Compound 118, Compound 156, and Compound 180 were administered to BALB/c nude mice bearing A375 xenografts from day 0 and dosed p.o. twice per day (BID). Compound 141 was administered from day 0 and dosed p.o. twice per day (BID) or dosed p.o. daily (QD) from day 1. Compound 141, Compound 118, Compound 156, and Compound 180 were dosed at 10 mg/kg for 14 days. The known BRAF inhibitor Dabrafenib was used as a positive control. Dabrafenib was administered from day 1 and dosed p.o. daily (QD) for 14 days and dosed at 100 mg/kg.
The A375 tumor cells were maintained in vitro in DMEM medium supplemented with […] and 1% Penicillin-Streptomycin at 37° C. in an atmosphere of 5% CO2 in air. The tumor cells were routinely subcultured twice weekly. The cells growing in an exponential growth phase were harvested and counted for tumor inoculation.
Each mouse was inoculated subcutaneously at the right flank with A375 tumor cells (5×10^6) in 0.2 mL of PBS with Matrigel (PBS: Matrigel=1:1) supplemented for tumor development. Animals were grouped when the average tumor volume reached 246 mm^3 for efficacy study and 390 mm^3 for PKPD study on day 17 after tumor inoculation. The test articles administration and the animal numbers in each group are shown in the above experimental tables.
as §1, §2
TGI was calculated for each group using the formula: TGI (%)=[1−(Ti−T0)/(Ci−C0)]×100; Ti is the average tumor volume of a treatment group on a given day, T0 is the average tumor volume of the treatment group on the day of treatment start, Ci is the average tumor volume of the vehicle control group on the same day with Ti, and C0 is the average tumor volume of the vehicle group on the day of treatment start.

**Q.** `CC(C)(C)c1nc(-c2cccc(NS(=O)(=O)c3c(F)cccc3F)c2F)c(-c2ccnc(N)n2)s1` [Dabrafenib, dabrafenib, reference compound] was tested. Which “Tumor Volume Trace Over Time” value ([1]; Day 0, Mean ± SEM) did it give?
**A.** The value was 243 ± 4 mm^3.

**Q.** What about the “Tumor Volume Trace Over Time” value ([1]; Day 3, Mean ± SEM) of the same molecule?
**A.** The value was 370 ± 17 mm^3.

**Q.** And the “Tumor Volume Trace Over Time” value ([1]; Day 7, Mean ± SEM)?
**A.** The value was 445 ± 13 mm^3.

**Q.** What about the “Tumor Volume Trace Over Time” value ([1]; Day 10, Mean ± SEM) of the same molecule?
**A.** Its value is 475 ± 23 mm^3.

**Q.** What about the “Tumor Volume Trace Over Time” value ([1]; Day 14, Mean ± SEM) of the same molecule?
**A.** The value was 521 ± 31 mm^3.

**Q.** What about the “Tumor Size on PG-D14” value ([1]; Mean ± SEM) of the same molecule?
**A.** Its value is 521 ± 31 mm^3.

**Q.** What about the “TGI (Tumor Growth Inhibition)” value ([1]; PG-D14) of the same molecule?
**A.** The value was 74.65%.

**Q.** And the T/C ([1]; PG-D14, treated/control average tumor volume)?
**A.** Its T/C is 38.87%.

**Q.** What about the T/C ([2]; PG-D14) of the same molecule?
**A.** The T/C was 55.8%.

**Q.** What about the TGI ([2]; PG-D14) of the same molecule?
**A.** The TGI was 54.3%.

**Q.** What about the “Tumor Size on PG-D14 (mean ± SEM)” value ([2]; PG-D14) of the same molecule?
**A.** Its value is 741 ± 40 mm^3.

**Q.** And the “Tumor Volume (mean ± SEM)” value ([2]; day 0)?
**A.** Its value is 246 ± 10 mm^3.

**Q.** And the “Tumor Volume (mean ± SEM)” value ([2]; day 3)?
**A.** Its value is 394 ± 20 mm^3.

**Q.** What about the “Tumor Volume (mean ± SEM)” value ([2]; day 7) of the same molecule?
**A.** The value was 515 ± 30 mm^3.

**Q.** And the “Tumor Volume (mean ± SEM)” value ([2]; day 10)?
**A.** The value was 608 ± 21 mm^3.

**Q.** What about the “Tumor Volume (mean ± SEM)” value ([2]; day 14) of the same molecule?
**A.** The value was 741 ± 40 mm^3.
